Measurements published in PubChem BioAssay AID1963446 (Molecular Pharmacology Branch, DTP, NCI, 2024).
Values belong to the molecule of their own block, whether it stands above or below them.

System: 993429-296-R-J1-PDC complex spheroid growth, percent test/control
Assay: Anticancer human tumor 993429-296-R-J1-PDC patient-derived uterine sarcoma cell line growth inhibition [Asc]
Details: for IC50: curve of first compound; for viability, T/C: stronger effect = lower value
Outline: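 Stromal components (HUVEC and hMSC) are co-assembled with the cancer cells into multicellular spheroids. Drugs are then added singly or paired, at concentrations falling by half-log increments from a clinically achievable maximum, capped at 10 microM without known Cmax.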

[1] = second compound 0.01 µM, first compound 0.0316 µM
[2] = second compound 0.01 µM, first compound 0.1 µM
[3] = second compound 0.0316 µM, first compound 0.0316 µM
[4] = second compound 0.0316 µM, first compound 0.1 µM
[5] = second compound 0.1 µM, first compound 0.0316 µM
[6] = second compound 0.1 µM, first compound 0.1 µM
[7] = second compound 0.316 µM, first compound 0.0316 µM
[8] = second compound 0.316 µM, first compound 0.1 µM
[9] = second compound 1 µM, first compound 0.0316 µM
[10] = second compound 1 µM, first compound 0.1 µM
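Further: spheroids exposed to compounds for seven days.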

- IC50 (second compound 0.01 µM): > 0.1 µM
- IC50 (second compound 0.0316 µM): > 0.1 µM
- IC50 (second compound 0.1 µM): > 0.1 µM
- IC50 (second compound 0.316 µM): > 0.1 µM
- IC50 (second compound 1 µM): < 0.000316 µM
SMILES: NC1CCC(NC2CC2c2ccccc2)CC1 (stereo not given) + CNC(C)C(=O)NC1CN(S(=O)(=O)c2cccc(S(=O)(=O)N3CCC4CCC(C(=O)NC(c5ccccc5)c5ccccc5)N4C(=O)C(NC(=O)C(C)NC)C3)c2)CCC2CCC(C(=O)NC(c3ccccc3)c3ccccc3)N2C1=O
- viability, T/C (second compound 0.01 µM, first compound 0.000316 µM): 63.9%
- viability, T/C (second compound 0.01 µM, first compound 0.001 µM): 62.7%
- viability, T/C (second compound 0.01 µM, first compound 0.00316 µM): 57.3%
- viability, T/C (second compound 0.01 µM, first compound 0.01 µM): 63.6%
- viability, T/C [1]: 57.8%
- viability, T/C [2]: 63.4%
- viability, T/C (second compound 0.0316 µM, first compound 0.000316 µM): 53.3%
- viability, T/C (second compound 0.0316 µM, first compound 0.001 µM): 56.3%
- viability, T/C (second compound 0.0316 µM, first compound 0.00316 µM): 48.5%
- viability, T/C (second compound 0.0316 µM, first compound 0.01 µM): 46.5%
- viability, T/C [3]: 57.7%
- viability, T/C [4]: 57.9%
- viability, T/C (second compound 0.1 µM, first compound 0.000316 µM): 53.1%
- viability, T/C (second compound 0.1 µM, first compound 0.001 µM): 53.5%
- viability, T/C (second compound 0.1 µM, first compound 0.00316 µM): 58.6%
- viability, T/C (second compound 0.1 µM, first compound 0.01 µM): 54.9%
- viability, T/C [5]: 58.3%
- viability, T/C [6]: 56%
- viability, T/C (second compound 0.316 µM, first compound 0.000316 µM): 59.7%
- viability, T/C (second compound 0.316 µM, first compound 0.001 µM): 51.5%
- viability, T/C (second compound 0.316 µM, first compound 0.00316 µM): 48.1%
- viability, T/C (second compound 0.316 µM, first compound 0.01 µM): 50.2%
- viability, T/C [7]: 53.2%
- viability, T/C [8]: 49.8%
- viability, T/C (second compound 1 µM, first compound 0.000316 µM): 45.9%
- viability, T/C (second compound 1 µM, first compound 0.001 µM): 41.7%
- viability, T/C (second compound 1 µM, first compound 0.00316 µM): 39.7%
- viability, T/C (second compound 1 µM, first compound 0.01 µM): 41.1%
- viability, T/C [9]: 47.9%
- viability, T/C [10]: 28.1%

- IC50 (second compound 0.01 µM): 4.7 µM
- IC50 (second compound 0.0316 µM): 4.62 µM
- IC50 (second compound 0.1 µM): 2.63 µM
- IC50 (second compound 0.316 µM): 3.31 µM
- IC50 (second compound 1 µM): < 0.0316 µM
SMILES: C#Cc1c(F)ccc2cc(O)cc(-c3ncc4c(N5CC6CCC(C5)N6)nc(OCC56CCCN5CC(F)C6)nc4c3F)c12 (stereo not given) + CNC(C)C(=O)NC1CN(S(=O)(=O)c2cccc(S(=O)(=O)N3CCC4CCC(C(=O)NC(c5ccccc5)c5ccccc5)N4C(=O)C(NC(=O)C(C)NC)C3)c2)CCC2CCC(C(=O)NC(c3ccccc3)c3ccccc3)N2C1=O
- viability, T/C [1]: 71.7%
- viability, T/C [2]: 67.2%
- viability, T/C (second compound 0.01 µM, first compound 0.316 µM): 69.5%
- viability, T/C (second compound 0.01 µM, first compound 1 µM): 57.3%
- viability, T/C (second compound 0.01 µM, first compound 3.16 µM): 64.3%
- viability, T/C (second compound 0.01 µM, first compound 10 µM): 25.6%
- viability, T/C [3]: 58.8%
- viability, T/C [4]: 66.6%
- viability, T/C (second compound 0.0316 µM, first compound 0.316 µM): 56.5%
- viability, T/C (second compound 0.0316 µM, first compound 1 µM): 67.4%
- viability, T/C (second compound 0.0316 µM, first compound 3.16 µM): 60.5%
- viability, T/C (second compound 0.0316 µM, first compound 10 µM): 28%
- viability, T/C [5]: 61%
- viability, T/C [6]: 62.1%
- viability, T/C (second compound 0.1 µM, first compound 0.316 µM): 67.1%
- viability, T/C (second compound 0.1 µM, first compound 1 µM): 61.7%
- viability, T/C (second compound 0.1 µM, first compound 3.16 µM): 47.7%
- viability, T/C (second compound 0.1 µM, first compound 10 µM): 28.4%
- viability, T/C [7]: 45.2%
- viability, T/C [8]: 55.8%
- viability, T/C (second compound 0.316 µM, first compound 0.316 µM): 43.3%
- viability, T/C (second compound 0.316 µM, first compound 1 µM): 48.8%
- viability, T/C (second compound 0.316 µM, first compound 3.16 µM): 64.7%
- viability, T/C (second compound 0.316 µM, first compound 10 µM): 16.3%
- viability, T/C [9]: 49.9%
- viability, T/C [10]: 50.2%
- viability, T/C (second compound 1 µM, first compound 0.316 µM): 39.5%
- viability, T/C (second compound 1 µM, first compound 1 µM): 58%
- viability, T/C (second compound 1 µM, first compound 3.16 µM): 50.2%
- viability, T/C (second compound 1 µM, first compound 10 µM): 25%
